Residues, ends and D or L forms follow the SMILES beside them. *: point of attachment. Cbz = O=C(OCc1ccccc1)*; CH2F = FC*
Assays:
A5-RT3 cells = test: Cytotoxicity assay (crystal violet); type: cell-based, human
Procedure: (§1) Cytotoxicity assay. Crystal violet staining of attached, living cells was performed 20-24 h after stimulation with the indicated concentrations of TRAIL or CD95L in 96 well plates in triplicate wells per condition as described^37. The optical density (OD) of control cultures was normalized to 100% compared to stimulated cells. For statistical analysis the standard error of mean (SEM) was determined for 3-7 independent experiments of each cell line and stimulatory condition.

HaCaT cells [1] = test: Cytotoxicity assay (crystal violet); type: cell-based, human
Procedure: as §1

HaCaT cells [2] = test: Immunofluorescence microscopy (Hoechst 33342, nuclear morphology); type: cell-based, human; conditions: zVAD-fmk 10 μM; for protection from cell death: CD95L 24 hrs
Procedure: Immunofluorescence microscopy. For detection of nuclear morphology, 5×10^4 cells of the respective cells were seeded per well in a 12-well plate. Subsequently, cells were incubated with Hoechst 33342 (5 μg/ml) for 15 min at 37° C. immediately followed by phase contrast or fluorescence microscopy using a suitable instrument (Leica). Digital images were identically processed using appropriate software.

TRAF2 [3] = biological target: T1, TRAF2 (human, UniProt Q12933 2-501); test: caspase-8 co-immunoprecipitation (complex II), Western blot
T1 construct: Endogenous protein
T1 sequence (looked up): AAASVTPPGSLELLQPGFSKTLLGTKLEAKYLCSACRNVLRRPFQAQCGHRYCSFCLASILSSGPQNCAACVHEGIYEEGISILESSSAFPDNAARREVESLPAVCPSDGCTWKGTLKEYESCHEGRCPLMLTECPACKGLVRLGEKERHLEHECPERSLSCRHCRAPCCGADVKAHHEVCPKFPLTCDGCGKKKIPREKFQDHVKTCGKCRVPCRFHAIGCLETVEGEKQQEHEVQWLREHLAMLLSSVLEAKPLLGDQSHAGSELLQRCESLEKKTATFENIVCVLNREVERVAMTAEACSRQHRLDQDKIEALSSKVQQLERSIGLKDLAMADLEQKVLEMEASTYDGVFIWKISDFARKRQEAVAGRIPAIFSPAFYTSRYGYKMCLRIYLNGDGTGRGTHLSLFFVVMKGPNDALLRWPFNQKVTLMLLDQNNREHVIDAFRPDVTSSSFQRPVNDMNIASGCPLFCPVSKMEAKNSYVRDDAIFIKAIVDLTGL

TRAF2 [4] = biological target: T1, TRAF2; test: CD95L-Fc ligand affinity precipitation of the CD95 DISC, Western blot
Procedure: (§2) Ligand affinity precipitation of Receptor complexes. For the precipitation of the CD95L DISC, 5×10⁶ cells were used for each condition. Cells were washed once with medium at 37° C. and subsequently preincubated for 1 h with 10 μM zVAD-fmk and, as indicated with 100 nM IAP inhibitor at 37° C. Subsequently cells were treated with 250 units/ml CD95L-Fc for 2 h or, for the unstimulated control, in the absence of ligands. Receptor complex formation was stopped by washing the monolayer four times with ice-cold PBS. Cells were lysed on ice by addition of 2 ml lysis buffer (30 mM Tris-HCl pH 7.5 at 21° C., 120 mM NaCl, 10% Glycerol, 1% Triton X-100, Complete® protease inhibitor cocktail (Roche Molecular Diagnostics, Mannheim, Germany)). After 30 min lysis on ice, the lysates were centrifuged two times at 20,000×g for 5 min and 30 min, respectively, to remove cellular debris. A minor fraction of these clear lysates were used to control for the input of the respective proteins. For the precipitation of the CD95 receptor and stimulation-dependent recruited proteins, Apo-1 IgG3 antibodies (kindly provided by P. H. Krammer) were added to the lysates prepared from non-stimulated as well as stimulated cells to precipitate the receptor-interacting proteins. […]

RIP1 = biological target: T2, RIP1 (human, UniProt Q13546 1-671); test: CD95L-Fc ligand affinity precipitation of the DISC from control-infected HaCaT cells, Western blot
T2 construct: Endogenous protein; also called kinase RIP1; full length RIP1
T2 sequence (looked up): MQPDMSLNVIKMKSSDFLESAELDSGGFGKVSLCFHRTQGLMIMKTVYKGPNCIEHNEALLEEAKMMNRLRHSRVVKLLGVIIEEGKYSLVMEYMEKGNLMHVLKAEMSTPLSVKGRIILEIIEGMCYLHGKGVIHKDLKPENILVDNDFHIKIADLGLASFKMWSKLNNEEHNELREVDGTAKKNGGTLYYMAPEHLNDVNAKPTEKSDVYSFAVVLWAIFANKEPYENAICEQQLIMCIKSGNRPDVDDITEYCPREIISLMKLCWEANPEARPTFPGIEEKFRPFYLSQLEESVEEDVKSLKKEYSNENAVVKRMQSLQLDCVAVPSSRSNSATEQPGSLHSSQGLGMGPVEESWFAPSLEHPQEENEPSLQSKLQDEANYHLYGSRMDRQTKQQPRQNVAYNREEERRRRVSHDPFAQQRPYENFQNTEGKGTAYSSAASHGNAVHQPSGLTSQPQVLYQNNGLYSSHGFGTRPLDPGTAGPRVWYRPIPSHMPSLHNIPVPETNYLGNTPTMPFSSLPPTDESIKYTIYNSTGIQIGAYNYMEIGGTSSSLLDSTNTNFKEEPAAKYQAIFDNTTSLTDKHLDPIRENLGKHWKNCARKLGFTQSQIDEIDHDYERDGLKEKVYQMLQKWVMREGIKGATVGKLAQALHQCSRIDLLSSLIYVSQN
Procedure: as §2

A375 melanoma cells = test: Fc-CD95L unit determination (killing of cells); type: cell-based; conditions: one unit = 1:500 dilution of stock Fc-CD95L supernatant
Procedure: Materials. […] B-actin Abs were from a suitable source. His-FLAG-TRAIL (HF-TRAIL) was produced as recently described^17. For expression of Fc-CD95L we used a construct recently published^57 (kindly provided by P. Schneider, Epalinges, Switzerland). One unit of Fc-CD95L was determined as a 1:500 dilution of the stock Fc-CD95L supernatant, and one unit/ml of Fc-CD95L supernatant was sufficient to kill 50 percent (LD50) of A375 melanoma cells, as recently described^58. […] Horseradish peroxidase (HRP)-conjugated goat anti-rabbit, goat anti rat IgG, goat anti-mouse IgG Abs and HRP-conjugated goat anti-mouse IgG1, IgG2a, IgG2b, and IgG1κ were obtained from Southern Biotechnology Associates (Birmingham, Ala.). TRAIL-R1 (HS 101), TRAIL-R2 (HS 201), mAbs for FACScan analysis of surface receptor expression were used as previously described^26 and are available from Alexis (San Diego, Calif.). CD95 Abs (Apo-1 IgG1 and IgG3a) were kindly provided by P. H. Krammer (German Cancer Research Center, Heidelberg, Germany). Cy5-conjugated Annexin V was purchased from Pharmingen (Hamburg, Germany). The IAP inhibitor (compound A) was provided by Tetralogic Pharmaceuticals (Malvern, Pa., USA). Compound A is exemplified in US20060194741, which is incorporated in its entirety by reference herein, and Compound A has the following structure: […]

For CN1C(=O)C(Cc2c[nH]c3ccccc23)NC1=S (stereo not drawn) [necrostatin-1], which “protection from death ligand-mediated cell death” value (A5-RT3 cells; cFLIP-shRNA A5-RT3 cells, necrostatin-1 50 μM, IAP inhibitor, CD95L) is on record?
Its value is “ineffective”.

And the “protection from CD95L-mediated cell death” value (HaCaT cells [1]; cFLIPS-expressing HaCaT, IAP inhibitor + CD95L, necrostatin-1 50 μM, 24 hrs)?
Its value is “fully protected”.

And the “protection from TRAIL- or CD95L-mediated cell death” value (HaCaT cells [1]; necrostatin-1 50 μM added to zVAD-fmk-protected cells, IAP inhibitor 100 nM)?
The value was “fully recovered viability”.

And the “protection from death ligand-mediated cell death” value (HaCaT cells [1]; necrostatin-1 50 μM alone, no caspase inhibitor, IAP inhibitor 100 nM)?
Its value is “ineffective”.

For COC(=O)C[C@H](NC(=O)[C@H](C)NC(=O)[C@@H](NC(=O)OCc1ccccc1)C(C)C)C(=O)CF [zVAD-fmk] (Cbz-Val-Ala-Asp(OMe)-CH2F), which “protection from death ligand-mediated cell death” value (A5-RT3 cells; cFLIP-downregulated cells insensitive to IAP inhibitor, zVAD-fmk) is on record?
The value was “fully protected”.

And the “protection from death receptor-mediated cell death” value (HaCaT cells [1]; cFLIPS-expressing HaCaT, IAP inhibitor + CD95L, zVAD-fmk 10 μM)?
Its value is “not protected”.

And the “block of TRAIL- or CD95L-mediated cell death” value (HaCaT cells [1]; zVAD-fmk 10 μM, in the presence of IAP inhibitor 100 nM)?
Its value is “only partially blocked”.

What about the “block of TRAIL- or CD95L-mediated cell death” value (HaCaT cells [1]; zVAD-fmk 10 μM, without IAP inhibitor, 24 hrs) of the same molecule?
Its value is “fully blocked cell death”.

What about the “protection of cellular morphology or DNA fragmentation” value (HaCaT cells [2]; CD95L 4 hrs, in the presence of IAP inhibitor) of the same molecule?
Its value is “fully protected”.

And the “protection from cell death” value (HaCaT cells [2]; in the presence of IAPs (no IAP inhibitor))?
The value was “complete protection”.

And the “protection from cell death” value (HaCaT cells [2]; with IAP inhibitor)?
The value was “did not protect”.

B1: caspase-8 (enzyme, human, UniProt Q14790 1-479, looked up)
chain: MDFSRNLYDIGEQLDSEDLASLKFLSLDYIPQRKQEPIKDALMLFQRLQEKRMLEESNLSFLKELLFRINRLDLLITYLNTRKEEMERELQTPGRAQISAYRVMLYQISEEVSRSELRSFKFLLQEEISKCKLDDDMNLLDIFIEMEKRVILGEGKLDILKRVCAQINKSLLKIINDYEEFSKERSSSLEGSPDEFSNGEELCGVMTISDSPREQDSESQTLDKVYQMKSKPRGYCLIINNHNFAKAREKVPKLHSIRDRNGTHLDAGALTTTFEELHFEIKPHDDCTVEQIYEILKIYQLMDHSNMDCFICCILSHGDKGIIYGTDGQEAPIYELTSQFTGLKCPSLAGKPKVFFIQACQGDNYQKGIPVETDSEEQPYLEMDLSSPQTRYIPDEADFLLGMATVNNCVSYRNPAEGTWYIQSLCQSLRERCPRGDDILTILTEVNYEVSNKDDKKNMGKQMPQPTFTLRKKLVFPSD
notes: Endogenous protein in cell lysates; also called caspase-8 p43/41 (cleaved form seen in the DISC)
Does B1 bind (TRAF2 [3])?
Result: no binding

B2: CD95 (receptor, human, UniProt P25445 26-335, looked up)
chain: QVTDINSKGLELRKTVTTVETQNLEGLHHDGQFCHKPCPPGERKARDCTVNGDEPDCVPCQEGKEYTDKAHFSSKCRRCRLCDEGHGLEVEINCTRTQNTKCRCKPNFFCNSTVCEHCDPCTKCEHGIIKECTLTSNTKCKEEGSRSNLGWLCLLLLPIPLIVWVKRKEVQKTCRKHRKENQGSHESPTLNPETVAINLSDVDLSKYITTIAGVMTLSQVKGFVRKNGVNEAKIDEIKNDNVQDTAEQKVQLLRNWHQLHGKKEAYDTLIKDLKKANLCTLAEKIQTIILKDITSDSENSNFRNEIQSLV
notes: whole, on cells; recruitment to it may be indirect (through FADD); also called CD95 DISC; CD95 receptor
Does B2 bind (TRAF2 [4])?
Result: no binding

Does B2 bind (RIP1)?
Result: binds

B3: Fc-CD95L: Fc-CD95L supernatant expressed from a published construct; death ligand (protein)
chain: EKKELRKVAHLTGKSNSRSMPLEWEDTYGIVLLSGVKYKKGGLVINETGLYFVYSKVYFRGQSCNNLPLSHKVYMRNSKYPQDLVMMEGKMMSYCTTGQMWARSSYLGAVFNLTSADHLYVNVSELSLVNFEESQTFFGLYKL
modifications: left off: a dimerising Fc or GST
notes: Fc-CD95L supernatant expressed from a published construct; death ligand
How did the “LD50 (kill 50 percent of cells)” value (A375 melanoma cells) turn out when B3 was run?
Its value is “one”.

Reference: US20120015352A1, “METHOD OF DETERMINING SENSITIVITY OF HUMAN OR NON-HUMAN ANIMAL CELLS TO AN IAP ANTAGONIST” (Otto-von-Guericke-Universitat Magdeburg, priority 2009, published 2012)
